ChEMBL document CHEMBL3431459, “Roche carnitine palmitoyltransferase modulator screening data (supplementary data associated with the publication CHEMBL2216752)”
Values after ≈ are worked out from the molar mass of the structure shown.

Experiments:
[1] = molecular target: T1, Carnitine O-palmitoyltransferase 1, liver isoform (Homo sapiens, UniProt P50416); assay: (§1) SUPPLEMENTARY: Inhibition of Carnitine palmitoyltransferase 1, liver isoform
T1 sequence (P50416 whole entry): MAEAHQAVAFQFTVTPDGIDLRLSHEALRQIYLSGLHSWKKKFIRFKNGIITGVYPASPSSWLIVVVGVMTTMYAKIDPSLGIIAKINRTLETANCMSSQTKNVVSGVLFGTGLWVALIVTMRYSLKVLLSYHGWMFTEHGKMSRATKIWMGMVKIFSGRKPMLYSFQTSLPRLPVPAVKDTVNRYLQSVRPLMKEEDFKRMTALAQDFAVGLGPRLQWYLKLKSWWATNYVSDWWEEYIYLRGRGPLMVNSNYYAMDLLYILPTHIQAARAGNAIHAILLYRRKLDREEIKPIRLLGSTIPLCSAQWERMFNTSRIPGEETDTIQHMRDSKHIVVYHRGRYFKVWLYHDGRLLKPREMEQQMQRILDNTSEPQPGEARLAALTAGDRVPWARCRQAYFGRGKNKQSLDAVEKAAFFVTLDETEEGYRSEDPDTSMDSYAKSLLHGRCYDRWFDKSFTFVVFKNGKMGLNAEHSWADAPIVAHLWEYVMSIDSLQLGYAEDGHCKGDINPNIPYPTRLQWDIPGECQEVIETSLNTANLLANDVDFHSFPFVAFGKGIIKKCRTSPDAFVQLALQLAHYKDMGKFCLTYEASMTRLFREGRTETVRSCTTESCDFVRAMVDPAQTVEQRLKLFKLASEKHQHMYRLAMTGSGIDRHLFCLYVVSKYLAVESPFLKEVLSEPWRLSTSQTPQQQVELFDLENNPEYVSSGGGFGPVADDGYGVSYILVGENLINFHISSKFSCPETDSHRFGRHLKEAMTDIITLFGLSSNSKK

[2] = molecular target: T2, Carnitine O-palmitoyltransferase 1, liver isoform (Rattus norvegicus, UniProt P32198); assay: as §1
T2 sequence (P32198 whole entry): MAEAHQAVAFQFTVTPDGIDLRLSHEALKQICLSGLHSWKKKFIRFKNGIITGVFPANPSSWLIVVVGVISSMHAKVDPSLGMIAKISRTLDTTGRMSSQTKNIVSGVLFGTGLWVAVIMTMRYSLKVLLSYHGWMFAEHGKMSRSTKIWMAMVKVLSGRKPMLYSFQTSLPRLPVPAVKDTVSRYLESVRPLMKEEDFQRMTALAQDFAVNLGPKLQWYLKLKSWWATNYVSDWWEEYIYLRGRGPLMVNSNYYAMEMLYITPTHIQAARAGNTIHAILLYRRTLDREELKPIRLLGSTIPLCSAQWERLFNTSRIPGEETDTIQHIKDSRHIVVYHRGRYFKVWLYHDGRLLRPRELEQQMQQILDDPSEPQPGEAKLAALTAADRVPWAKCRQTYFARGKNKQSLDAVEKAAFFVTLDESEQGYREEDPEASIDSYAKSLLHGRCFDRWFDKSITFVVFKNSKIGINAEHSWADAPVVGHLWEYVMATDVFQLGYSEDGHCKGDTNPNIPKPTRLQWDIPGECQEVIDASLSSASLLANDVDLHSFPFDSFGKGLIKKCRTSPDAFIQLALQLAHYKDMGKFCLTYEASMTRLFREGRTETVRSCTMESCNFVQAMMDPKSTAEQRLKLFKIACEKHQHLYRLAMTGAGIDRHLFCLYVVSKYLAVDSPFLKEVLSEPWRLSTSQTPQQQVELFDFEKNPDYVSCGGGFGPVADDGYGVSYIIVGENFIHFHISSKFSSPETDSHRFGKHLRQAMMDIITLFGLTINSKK

[3] = SUPPLEMENTARY: PAMPA permeability assay; assay type: physicochemical; conditions: read-out: Permeability
[4] = SUPPLEMENTARY: Lyophilisation Solubility Assay (LYSA); assay type: physicochemical; conditions: read-out: Kinetic_solubility
[5] = molecular target: T3, Carnitine O-palmitoyltransferase 1, muscle isoform (Homo sapiens, UniProt Q92523); assay: SUPPLEMENTARY: Inhibition of Carnitine palmitoyltransferase 1, muscle isoform; design: species or system Muscle tissue
T3 sequence (Q92523 whole entry): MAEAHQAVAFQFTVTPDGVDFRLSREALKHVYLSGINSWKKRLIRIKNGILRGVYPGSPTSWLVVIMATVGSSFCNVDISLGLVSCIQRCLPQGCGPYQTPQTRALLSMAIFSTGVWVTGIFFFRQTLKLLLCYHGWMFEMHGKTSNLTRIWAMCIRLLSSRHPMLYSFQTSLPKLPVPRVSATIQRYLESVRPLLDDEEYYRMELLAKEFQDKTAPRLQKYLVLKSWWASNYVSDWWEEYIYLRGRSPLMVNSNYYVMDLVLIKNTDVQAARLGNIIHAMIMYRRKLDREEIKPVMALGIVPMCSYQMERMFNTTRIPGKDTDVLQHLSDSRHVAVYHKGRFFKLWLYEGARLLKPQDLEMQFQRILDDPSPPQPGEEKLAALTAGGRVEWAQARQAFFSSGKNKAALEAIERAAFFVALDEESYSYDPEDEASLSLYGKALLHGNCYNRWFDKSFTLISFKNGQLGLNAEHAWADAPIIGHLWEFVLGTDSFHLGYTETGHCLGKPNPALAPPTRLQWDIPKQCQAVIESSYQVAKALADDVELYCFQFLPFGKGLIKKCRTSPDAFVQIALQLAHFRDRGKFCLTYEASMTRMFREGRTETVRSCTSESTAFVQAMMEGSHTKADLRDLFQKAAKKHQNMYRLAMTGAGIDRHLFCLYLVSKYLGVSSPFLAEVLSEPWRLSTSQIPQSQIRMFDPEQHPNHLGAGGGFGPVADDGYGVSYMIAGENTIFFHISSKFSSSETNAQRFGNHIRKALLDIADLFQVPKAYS

[6] = molecular target: T4, Carnitine O-palmitoyltransferase 2, mitochondrial (Homo sapiens, UniProt P23786); assay: (§2) SUPPLEMENTARY: Inhibition of Carnitine palmitoyltransferase 2
T4 sequence (P23786 whole entry): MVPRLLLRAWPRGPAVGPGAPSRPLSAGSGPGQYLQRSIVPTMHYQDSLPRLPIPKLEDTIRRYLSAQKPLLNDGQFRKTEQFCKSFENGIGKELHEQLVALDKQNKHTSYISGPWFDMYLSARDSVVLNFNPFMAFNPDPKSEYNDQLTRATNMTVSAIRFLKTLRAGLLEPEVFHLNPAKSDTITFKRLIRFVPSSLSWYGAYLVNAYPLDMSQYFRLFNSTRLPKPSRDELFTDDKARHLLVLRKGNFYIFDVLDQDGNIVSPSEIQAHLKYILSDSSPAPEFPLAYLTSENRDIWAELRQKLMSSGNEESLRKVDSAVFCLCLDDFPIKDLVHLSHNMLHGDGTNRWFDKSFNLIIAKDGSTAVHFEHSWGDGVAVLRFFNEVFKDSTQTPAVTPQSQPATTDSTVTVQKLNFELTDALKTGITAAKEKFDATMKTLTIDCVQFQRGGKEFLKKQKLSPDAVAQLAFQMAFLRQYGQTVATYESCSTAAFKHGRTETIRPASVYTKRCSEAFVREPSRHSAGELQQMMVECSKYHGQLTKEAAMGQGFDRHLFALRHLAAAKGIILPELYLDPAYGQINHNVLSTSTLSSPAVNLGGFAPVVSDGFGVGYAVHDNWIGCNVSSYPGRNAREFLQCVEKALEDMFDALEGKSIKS

[7] = molecular target: T5, Carnitine O-palmitoyltransferase 2, mitochondrial (Rattus norvegicus, UniProt P18886); assay: as §2
T5 sequence (P18886 whole entry): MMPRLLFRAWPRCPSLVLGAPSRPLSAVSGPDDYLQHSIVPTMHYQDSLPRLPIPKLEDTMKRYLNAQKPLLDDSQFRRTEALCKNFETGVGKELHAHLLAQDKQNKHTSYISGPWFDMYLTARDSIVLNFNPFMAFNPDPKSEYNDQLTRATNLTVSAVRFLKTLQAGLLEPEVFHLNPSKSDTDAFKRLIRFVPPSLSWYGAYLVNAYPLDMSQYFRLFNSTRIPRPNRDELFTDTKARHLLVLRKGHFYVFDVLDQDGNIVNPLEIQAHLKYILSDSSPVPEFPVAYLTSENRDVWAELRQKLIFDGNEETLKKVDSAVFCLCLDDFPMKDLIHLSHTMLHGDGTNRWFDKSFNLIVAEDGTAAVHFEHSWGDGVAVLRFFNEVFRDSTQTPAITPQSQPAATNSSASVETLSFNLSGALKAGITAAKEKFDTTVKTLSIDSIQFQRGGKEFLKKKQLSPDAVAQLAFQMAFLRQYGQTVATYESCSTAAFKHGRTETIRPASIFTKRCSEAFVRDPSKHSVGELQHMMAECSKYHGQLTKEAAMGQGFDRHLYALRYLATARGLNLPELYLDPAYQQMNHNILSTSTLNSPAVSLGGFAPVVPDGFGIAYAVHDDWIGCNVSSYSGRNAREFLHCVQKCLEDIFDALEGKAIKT

[8] = SUPPLEMENTARY: Lipophilicity (log D) Determination by high-throughput shake-flask; assay type: physicochemical; conditions: octanol/water

| Structure (SMILES) | IC50 [1] [nM] | IC50 [2] [nM] | Papp [3] [×10⁻⁶ cm/s] | solubility kinetic [4] [µg/mL] | IC50 [5] [nM] | IC50 [6] [nM] | IC50 [7] [nM] | logD [8] |
| --- | --- | --- | --- | --- | --- | --- | --- | --- |
| O=C1CCN1c1cccc(-c2n[nH]c([C@H]3CCCCN3C(=O)COc3ccccc3)n2)c1 | 114 | 316 | 2 | 33 (≈ 76.5 µM) | > 100000 | 44200 | 74700 | 2.9 |
| COc1ccc(Cl)cc1S(=O)(=O)N[C@@H]1CCCN(C(=O)COc2ccccc2)C1 | 134 | 95.4 | 1.36 | 64 (≈ 146 µM) | 51800 | 21000 | > 100000 | 2.59 |
| COc1ccc(Cl)cc1S(=O)(=O)N1COc2ccc(C(=O)Nc3ccc(C(=O)O)c(Cl)c3)cc21 | 208 | 182 | 1.66 | > 697 | 2280 | 9730 | 16000 | 0.09 |
| O=C(COc1ccccc1)N1CCCC[C@@H]1c1nc(-c2cc[nH]c(=O)c2)no1 | 83.4 | 337 | 5.39 | 275 (≈ 723 µM) | > 100000 | > 100000 | 88700 | 1.9 |
| Nc1cc(-c2n[nH]c([C@H]3CCCCN3C(=O)COc3ccccc3)n2)ccn1 | 123 | 1330 | 2.77 | 281 (≈ 743 µM) | > 100000 | > 100000 | > 100000 | 1.95 |
| COc1ccc(Cl)cc1S(=O)(=O)N1CCc2c(C)cc(C(=O)Nc3ccc(C(=O)O)cc3)cc21 | 77.5 | 56 | 2.01 | 13 (≈ 26 µM) | 5460 | 326 | 345 | 2.58 |
| CN(C)C(=O)c1ccc(-c2noc(C3C4CC4CN3C(=O)COc3ccccc3)n2)cc1 (configuration not stated) | 165 | 1090 | 4.37 | 147 (≈ 340 µM) | > 100000 | 47100 | 57100 | 2.17 |
| COc1ccc(Cl)cc1S(=O)(=O)N1CCNc2ccc(C(=O)Nc3ccc(C(=O)O)c(F)c3)cc21 | 112 | 162 | 0.23 | 58 (≈ 112 µM) | 6420 | 41600 | > 100000 | 0.07 |

Now those with a lower IC50 [1], led by results:

| IC50 [1] [nM] | IC50 [2] [nM] | Papp [3] [×10⁻⁶ cm/s] | solubility kinetic [4] [µg/mL] | IC50 [5] [nM] | IC50 [6] [nM] | IC50 [7] [nM] | logD [8] | Structure (SMILES) |
| --- | --- | --- | --- | --- | --- | --- | --- | --- |
| 72.1 | 692 | 2.6 | 29 (≈ 64.8 µM) | > 100000 | 36700 | 24100 | 3.32 | CC(C)C(=O)Nc1cccc(-c2n[nH]c([C@H]3CCCCN3C(=O)COc3ccccc3)n2)c1 |
| 43.8 | 104 | 2.55 | 17 (≈ 40.4 µM) | > 100000 | 72800 | > 100000 | 3.01 | CC(=O)Nc1cccc(-c2nc([C@H]3CCCCN3C(=O)COc3ccccc3)no2)c1 |
| 52.3 | 811 | 2.23 | 69 (≈ 154 µM) | 97000 | 57500 | 62900 | 2.84 | CCNC(=O)Nc1cccc(-c2n[nH]c([C@H]3CCCCN3C(=O)COc3ccccc3)n2)c1 |
| 56.1 | 40.7 | 2.93 | 13 (≈ 26.6 µM) | 5490 | 2890 | 6560 | 0.65 | COc1ccc(Cl)cc1S(=O)(=O)N1COc2ccc(C(=O)Nc3ccc(C(=O)O)cc3)cc21 |
| 71 | 96.2 | 1.65 | 60 (≈ 116 µM) | 3680 | 286 | 684 | 0.77 | COc1ccc(Cl)cc1S(=O)(=O)N1CCc2c(C)cc(C(=O)Nc3ccc(C(=O)O)c(F)c3)cc21 |
| 66.1 | 157 | 1.52 | 311 (≈ 581 µM) | 3530 | 591 | 967 | 0.66 | COc1ccc(Cl)cc1S(=O)(=O)N1CCc2c(C)cc(C(=O)Nc3ccc(C(=O)O)c(Cl)c3)cc21 |
